From patent US7754678B2, “Membrane penetrating peptides and uses thereof” (Aventis Pharmaceuticals Inc., priority 2000, dated 2010)

Key:
5HT2A receptor = target: T1, 5HT2A receptor (Homo sapiens, UniProt P28223); test: 5HT2A receptor activation, FLIPR calcium response; assay type: cell-based; conditions: 10 μM, 5HT2A receptor CHO stable cell line
T1 construct: expressed in transfected cells
Experimental: FIG. 4. Activation of serotonin 5HT2A receptor with hPER1-MPP fusion peptide. (A). hPER1-MPP and TAT-PTD peptides were synthesized alone or in fusion with either the first intracellular loop I1 ([…] (SEQ ID NO:10)), or the C-terminal Transmembrane 7 domain. TM7 ([…] (SEQ ID NO:11) derived from the 5HT2A receptor, genebank accession number, M86841). Receptor activities was assayed using standard FLIPR analysis and measuring endogenous and exogenous Ca^+2 levels. Peptide designations are as follows: T (TAT-PTD), P (hPER1-MPP), I1 (intracellular loop 1), T-I1 (TAT-PTD-I1), P-I1 (hPER1-MPP-I1), TM7 (C-terminal domain), TTM7 (TAT-PTD-TM7), PTM7 (hPER1-MPP-TM7), and S (Serotonin).
FIG. 4 (B). Dose response of PTM7 (closed circles) and TTM7 (closed diamonds) peptides. Serotonin (control, open triangle) was used at the maximum receptor stimulatory concentration of 10 μM.
One of the features of MPPs is their ability to cargo proteins and peptides into cells. We were successful in coupling hPER1-MPP to B-galactosidase and in delivering the fusion protein into cells in culture (data not shown), as has been described by Fawells et al., 1994 (Fawell, S., et al., Proc Natl Acad Sci USA. 91, 664-668 (1994)). However, to further extend the functional utility of MPPs, we tested hPER1-MPP in fusion with a physiologically relevant and biologically active peptide. […]

CHO cells [1] = test: Membrane penetration (peptide internalization) assay of biotinylated synthetic peptides; assay type: cell-based, Chinese Hamster; conditions: for intracellular distribution / staining of internalized peptide: Streptavidin ALEXA or anti-Flag mAb staining; for cells penetrated by peptide: peptide 10 μM added to cells in culture
Experimental: FIG. 2. Membrane penetration assay in CHO cells. N-terminal biotinylated synthetic peptides hPER1-PTD, Flag-hPER1-PTD, Flag-TAT-PTD (positive control), and Flag-Flag (negative control) were assayed for their ability to penetrate cellular membranes in living CHO cells in culture. The subcellular localization of internalized peptides was determined using a two color staining method, either Streptavidin-Alexa 594 (red) or anti-flag mAb. The third column is an overlay. Confocal microscopy was employed to further confirm intracellular and intranuclear localization. Single section of confocal imaging is shown.
FIG. 3. Alanine scanning of hPER1-PDTs. Biotinylated hPER1-NPDs were synthesized with a single amino acid residue substitution at the indicated position with an alanine and assayed for membrane penetration in CHO cells. Cells were incubated for 10 minutes at 37 C. at a peptide concentration of 10 μM followed by washing, fixation, permeablization, and then detected with labeled Streptavidin Alexa-594 (red, 2 μg/ml) for 15 minutes at the RT. Control peptide was from hPER1 N-terminal amino acids residues 486-500.
Peptides are synthesized by a commercial vendor (Bio Synthesis). For peptides internalization, cells are plated into two-well Lab-Tek coverslips (Nunc Inc.) at a density of 2×10^5 cells/well and cultured overnight. The peptides are dissolved in DMSO diluted to indicated concentration with PBS. The cell monolayers were incubated with the appropriate peptide/PBS solution at 1 μM standard concentration for 10 min at room temperature (RT) unless otherwise specified. For experiments at 4° C., the protocol was the same except that all incubations were performed at 4° C. until the end of the fixation procedure.
The peptides are assayed for their ability to penetrate cellular membranes. Intracellular localization is assayed by direct staining with labeled Streptavidin ALEXA reagents or by indirect staining with anti-Flag mAb followed by the addition of labeled secondary antibodies.

CHO cells [2] = test: β-galactosidase cargo delivery into cells (X-gal staining); assay type: cell-based, Chinese Hamster; conditions: chemically linked conjugates
Excerpt: FIG. 6. hPER-PTD cargo's β-Galactosidase into cells: At least one feature of HIV TAT transducing peptide is its ability to cargo proteins into cells and tissues. We therefore sought to determine if hPER1 transducing peptide could cargo beta galactosidase into cells. To perform this experiment, we followed a protocol by Frankel et al. 1989 (19):7397-401, whereby, we chemically linked hPER1-PTD or hPER-PTD R7A to full length β-galactosidase and assayed for the ability of these conjugates and beta-galactosidase protein alone to transduce into CHO cells.
At least one feature of HIV TAT transducing peptide is its ability to cargo proteins into cells and tissues. We therefore sought to determine if hPER1 transducing peptide could cargo beta galactosidase into cells. To perform this experiment, we followed a protocol by Frankel et al. PNAS 1989 (19):7397-401, whereby, we chemically linked hPER1-PTD or hPER-PTD R7A (with Ala replacing Arg^7) to full length β-galactosidase and assayed for the ability of these conjugates and beta-galactosidase protein alone to transduce into CHO cells.

T1 sequence (P28223 whole entry): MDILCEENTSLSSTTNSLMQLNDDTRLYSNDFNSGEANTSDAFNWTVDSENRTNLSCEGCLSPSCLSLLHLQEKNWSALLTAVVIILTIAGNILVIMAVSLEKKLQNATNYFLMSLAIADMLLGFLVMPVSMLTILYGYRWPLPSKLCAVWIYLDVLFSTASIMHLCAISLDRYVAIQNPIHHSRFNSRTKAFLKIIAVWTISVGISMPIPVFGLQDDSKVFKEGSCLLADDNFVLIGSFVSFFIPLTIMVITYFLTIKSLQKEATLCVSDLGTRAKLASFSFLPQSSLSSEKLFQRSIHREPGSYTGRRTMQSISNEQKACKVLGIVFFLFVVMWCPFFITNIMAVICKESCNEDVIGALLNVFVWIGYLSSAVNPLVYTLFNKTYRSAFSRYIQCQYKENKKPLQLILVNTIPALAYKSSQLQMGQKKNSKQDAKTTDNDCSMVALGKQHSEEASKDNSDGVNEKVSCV

Q: For `NCCc1c[nH]c2ccc(O)cc12` [serotonin], which “5HT2A receptor signaling, calcium response” value (5HT2A receptor) is on record?
A: receptor signaling is activated

Q: Which “membrane penetrating ability in words (relative to wild-type hPER1-MPP, TAT-PTD or negative control)” value (CHO cells [1]) does the source give for GDPKKKRKV [SV40, reference compound] here?
A: not all NLSs are PTDs

Q: How did the “membrane penetrating ability in words (relative to wild-type hPER1-MPP, TAT-PTD or negative control)” value (CHO cells [1]) turn out when GKHRHERGHHRDRRER [Cyclin L ania-6a] was run?
A: not all NLSs are PTDs

Q: With GKKKRKLSNRESAKRSR [beta Zip TF] as the molecule, how does the “membrane penetrating ability in words (relative to wild-type hPER1-MPP, TAT-PTD or negative control)” value (CHO cells [1]) read?
A: not all NLSs are PTDs

Q: How did the “membrane penetrating ability in words (relative to wild-type hPER1-MPP, TAT-PTD or negative control)” value (CHO cells [1]) turn out when GKKTGKNRKLKSKRVKPRD [hPER2] was run?
A: not all NLSs are PTDs

Q: “GMDYKDDDDKGMDYKDDDDK [Flag, reference compound]” was tested. Which “intracellular distribution / staining of internalized peptide” value (CHO cells [1]) did it give?
A: only barely discernible background staining

Q: For GMDYKDDDDKGSRRHHCRSKAKRSHH [Flag-hPER1], which “intracellular distribution / staining of internalized peptide” value (CHO cells [1]) is on record?
A: diffusely distributed throughout the cytoplasm, but concentrated within subnuclear domains

Q: And the “cells penetrated by peptide” value (CHO cells [1])?
A: 100%

Q: What does the source list for “GMDYKDDDDKGYGRKKKRRQRRR [Flag-TAT, reference compound]”?
A: intracellular distribution / staining of internalized peptide (CHO cells [1]): diffusely distributed throughout the cytoplasm, but concentrated within subnuclear domains; cells penetrated by peptide (CHO cells [1]): 100%

Q: GRRERNKMAAAKCRNRRR [C-FOS] was tested. Which “membrane penetrating ability in words (relative to wild-type hPER1-MPP, TAT-PTD or negative control)” value (CHO cells [1]) did it give?
A: not all NLSs are PTDs

Q: With “KTYRSAFSRYIQYKENKKPLQLI [TM7, C-terminal Transmembrane 7 domain peptide of the 5HT2A receptor]” as the molecule, how does the “5HT2A receptor signaling, calcium response” value (5HT2A receptor) read?
A: TM7 alone nor any of the other peptides were able to generate a calcium response

Q: Which “membrane penetrating ability in words (relative to wild-type hPER1-MPP, TAT-PTD or negative control)” value (CHO cells [1]) does the source give for “R R H H C R S K A K R S R (RRHHCRSKAKRSR) [hPER1-PTD13]” here?
A: little overall effect on the positive membrane penetrating potential

Q: “S R R H H C A S K A K R S R H H (SRRHHCASKAKRSRHH) [R7A]” was tested. Which “membrane penetrating ability in words (relative to wild-type hPER1-MPP, TAT-PTD or negative control)” value (CHO cells [1]) did it give?
A: reduced the detectable cytological signal to that observed for the negative control peptides

Q: What does the source list for “SRRHHCRSKAKRSRHH [hPER1-MPP, N-terminally biotinylated peptide of hPER1 amino acids 830-845]”?
A: membrane penetrating ability in words (relative to wild-type hPER1-MPP, TAT-PTD or negative control) (CHO cells [1]): efficiencies similar to the TAT-PTD peptide; time of internalization (CHO cells [1]): ≤ 5 min; intracellular distribution / staining of internalized peptide (CHO cells [1]): diffusely distributed throughout the cytoplasm, but concentrated within subnuclear domains; cells penetrated by peptide (CHO cells [1]): 100%

Q: How did the “delivery of β-galactosidase into cells (enzymatic activity, blue color after X-gal)” value (CHO cells [2]) turn out when “β-galactosidase protein: full length β-galactosidase alone” was run?
A: no blue staining reactivity
